Marks after values point to notes of the source that are not given here. Values belong to the compound of their own block, whether it stands above or below them.
Tests used:
αG275Cβγδ nAChR = αG275Cβγδ nAChR (Mus musculus, UniProt P02716+P04756+P04760, G295C); assay: Rates of reaction of engineered Cys with MTSEA; type: cell-based; details: MTSEA with ACh (EC80-EC100)
αI274Cβγδ nAChR = αI274Cβγδ nAChR (Mus musculus, UniProt P02716+P04756+P04760, I294C); assay: Rates of reaction of engineered Cys with MTSEA; type: cell-based; details: MTSEA with ACh (EC80-EC100)
αP272Cβγδ nAChR = αP272Cβγδ nAChR (Mus musculus, UniProt P02716+P04756+P04760, P292C); assay: Rates of reaction of engineered Cys with MTSEA; type: cell-based; details: MTSEA with ACh (EC80-EC100)
αV271Cβγδ nAChR = αV271Cβγδ nAChR (Mus musculus, UniProt P02716+P04756+P04760, V291C); assay: Rates of reaction of engineered Cys with MTSEA; type: cell-based; details: MTSEA with ACh (EC80-EC100)
αT267Cβγδ nAChR = αT267Cβγδ nAChR (Mus musculus, UniProt P02716+P04756+P04760, T287C); assay: Rates of reaction of engineered Cys with MTSEA; type: cell-based; details: MTSEA with ACh (EC80-EC100)
αS266Cβγδ nAChR = αS266Cβγδ nAChR (Mus musculus, UniProt P02716+P04756+P04760, S286C); assay: Rates of reaction of engineered Cys with MTSEA; type: cell-based
Chain of αS266Cβγδ nAChR (P04756 21-457 S286C): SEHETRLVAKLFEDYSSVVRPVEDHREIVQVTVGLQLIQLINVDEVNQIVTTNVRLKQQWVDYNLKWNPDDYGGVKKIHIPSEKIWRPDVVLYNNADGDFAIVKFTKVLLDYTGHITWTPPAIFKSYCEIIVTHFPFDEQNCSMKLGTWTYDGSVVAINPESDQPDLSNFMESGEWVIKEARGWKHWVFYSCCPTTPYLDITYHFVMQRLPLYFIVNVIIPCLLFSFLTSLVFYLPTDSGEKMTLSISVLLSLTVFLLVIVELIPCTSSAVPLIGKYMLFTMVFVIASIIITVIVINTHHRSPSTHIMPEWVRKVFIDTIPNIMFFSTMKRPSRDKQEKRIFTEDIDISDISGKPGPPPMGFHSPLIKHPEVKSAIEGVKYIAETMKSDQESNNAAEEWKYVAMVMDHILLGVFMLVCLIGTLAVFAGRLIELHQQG
Chain of αS266Cβγδ nAChR (P09690 24-501 partner): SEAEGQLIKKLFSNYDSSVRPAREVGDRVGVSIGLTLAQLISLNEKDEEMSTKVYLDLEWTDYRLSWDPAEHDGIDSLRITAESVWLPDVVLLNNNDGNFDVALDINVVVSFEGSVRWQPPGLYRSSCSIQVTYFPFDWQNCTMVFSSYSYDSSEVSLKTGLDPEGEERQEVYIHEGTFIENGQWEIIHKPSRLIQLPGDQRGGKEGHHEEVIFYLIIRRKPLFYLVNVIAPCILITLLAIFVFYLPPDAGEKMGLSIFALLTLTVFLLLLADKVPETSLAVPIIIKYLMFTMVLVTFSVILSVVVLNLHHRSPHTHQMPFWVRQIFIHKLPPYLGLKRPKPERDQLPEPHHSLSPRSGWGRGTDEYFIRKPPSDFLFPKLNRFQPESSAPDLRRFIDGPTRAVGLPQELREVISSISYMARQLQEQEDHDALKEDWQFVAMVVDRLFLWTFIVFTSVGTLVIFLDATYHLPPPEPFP
Chain of αS266Cβγδ nAChR (P04760 23-519): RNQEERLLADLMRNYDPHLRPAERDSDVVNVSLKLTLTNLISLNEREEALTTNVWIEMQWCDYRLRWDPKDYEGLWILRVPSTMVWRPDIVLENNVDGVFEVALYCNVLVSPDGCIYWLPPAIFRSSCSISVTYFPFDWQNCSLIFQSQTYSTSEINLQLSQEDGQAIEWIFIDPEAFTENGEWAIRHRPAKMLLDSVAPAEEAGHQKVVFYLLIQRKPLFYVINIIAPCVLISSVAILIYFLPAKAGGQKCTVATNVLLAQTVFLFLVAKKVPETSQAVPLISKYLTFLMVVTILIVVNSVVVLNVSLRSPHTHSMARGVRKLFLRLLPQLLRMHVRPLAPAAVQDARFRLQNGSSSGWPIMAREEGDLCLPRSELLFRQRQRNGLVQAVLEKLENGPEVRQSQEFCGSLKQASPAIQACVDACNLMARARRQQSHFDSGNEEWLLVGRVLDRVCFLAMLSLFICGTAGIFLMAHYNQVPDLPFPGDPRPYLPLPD
Chain of αS266Cβγδ nAChR (P02716 25-520, stated change not applied): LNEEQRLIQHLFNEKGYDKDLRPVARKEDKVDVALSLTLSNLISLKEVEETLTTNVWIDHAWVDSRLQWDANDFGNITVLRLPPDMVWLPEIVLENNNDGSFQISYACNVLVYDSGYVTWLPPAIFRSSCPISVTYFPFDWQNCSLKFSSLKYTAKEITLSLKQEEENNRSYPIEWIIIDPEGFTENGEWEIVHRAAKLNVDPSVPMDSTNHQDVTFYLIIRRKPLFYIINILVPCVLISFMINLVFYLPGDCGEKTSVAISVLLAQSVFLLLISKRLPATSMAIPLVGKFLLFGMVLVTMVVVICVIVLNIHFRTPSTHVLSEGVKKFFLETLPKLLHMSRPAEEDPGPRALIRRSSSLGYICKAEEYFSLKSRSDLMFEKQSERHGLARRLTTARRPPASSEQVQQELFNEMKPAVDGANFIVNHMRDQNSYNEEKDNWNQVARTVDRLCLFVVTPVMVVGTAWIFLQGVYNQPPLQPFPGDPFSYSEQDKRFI

αP265Cβγδ nAChR = αP265Cβγδ nAChR (Mus musculus, UniProt P02716+P04756+P04760, P285C); assay: Rates of reaction of engineered Cys with MTSEA; type: cell-based; details: MTSEA with ACh (EC80-EC100)
αI264Cβγδ nAChR = αI264Cβγδ nAChR (Mus musculus, UniProt P02716+P04756+P04760, I284C); assay: Rates of reaction of engineered Cys with MTSEA; type: cell-based; details: MTSEA with ACh (EC80-EC100)
αL263Cβγδ nAChR = αL263Cβγδ nAChR (Mus musculus, UniProt P02716+P04756+P04760+P09690, L283C); assay: Rates of reaction of engineered Cys with MTSEA; type: cell-based; details: αL263C; MTSEA alone; component not specified, classed slow
αE262Cβγδ nAChR = αE262Cβγδ nAChR (Mus musculus, UniProt P02716+P04756+P04760, E282C); assay: Rates of reaction of engineered Cys with MTSEA; type: cell-based; details: MTSEA with ACh (EC80-EC100)
αS268Cβγδ nAChR = αS268Cβγδ nAChR (Mus musculus, UniProt P02716+P04756+P04760, S288C); assay: Effect of MTS reagent application on subsequent ACh induced current; type: cell-based; details: αS268C
Chain of αS268Cβγδ nAChR (P04756 21-457 S288C): as the sequence (P04756 21-457 S286C) above, with C266S, S268C counted along it
Chain of αS268Cβγδ nAChR (P09690 24-501 partner): as the sequence (P09690 24-501 partner) above
Chain of αS268Cβγδ nAChR (P04760 23-519): as the sequence (P04760 23-519) above
Chain of αS268Cβγδ nAChR (P02716 25-520): as the sequence (P02716 25-520, stated change not applied) above

[1] = tested on: nAChR α-subunit single Cys mutants (αβγδ); details: 2 min, αA270C, αL273C, αI274C, αK276C, αY277C
αS269Cβγδ nAChR = αS269Cβγδ nAChR (Mus musculus, UniProt P02716+P04756+P04760, S289C); assay: Effect of MTS reagent application on subsequent ACh induced current; type: cell-based; details: αS269C; MTSES 5 mM, 2 min; ACh EC30-70

Compound: CS(=O)(=O)SCCN [MTSEA, methanethiosulfonate ethylammonium]
τ in the presence of ACh, second order reaction rate constant (αG275Cβγδ nAChR): 22.2 ± 3.3 M⁻¹ s⁻¹
τ in the presence of ACh, second order reaction rate constant (αI274Cβγδ nAChR): 8.7 ± 2.6*** M^-1s^-1
τ in the presence of ACh, second order reaction rate constant (αP272Cβγδ nAChR): 426 ± 66* M^-1s^-1
τ in the presence of ACh, second order reaction rate constant (αV271Cβγδ nAChR): 398 ± 73*** M^-1s^-1
τ in the presence of ACh, second order reaction rate constant (αT267Cβγδ nAChR): 5,450 ± 86*** M^-1s^-1
τ, second order reaction rate constant (αS266Cβγδ nAChR; MTSEA applied in the absence of ACh): 12,200 ± 2,200 M^-1s^-1
τ in the presence of ACh, second order reaction rate constant (αS266Cβγδ nAChR; MTSEA with ACh (EC80-EC100)): 6,970 ± 1,800 M^-1s^-1
τ in the presence of ACh, second order reaction rate constant (αP265Cβγδ nAChR): 3,940 ± 620*** M^-1s^-1
τ in the presence of ACh, second order reaction rate constant (αI264Cβγδ nAChR): 22.8 ± 6.5 M⁻¹ s⁻¹
second-order rate constant (αL263Cβγδ nAChR): < 1,000 M^-1s^-1
τ in the presence of ACh, second order reaction rate constant (αE262Cβγδ nAChR): 23,000 ± 2,100** M^-1s^-1
reaction of MTSEA at this position (successive MTSEA then MTSES application) (αS268Cβγδ nAChR; MTSEA 2 mM, 2 min followed by MTSES 5 mM, 2 min on the same oocyte): does not react at this position
effect of MTSEA application on ACh induced currents ([1]; MTSEA 2 mM, absence of ACh, αS268C): no effect

% increase of subsequent ACh induced current amplitude (αS268Cβγδ nAChR; MTSES 5 mM, 2 min, ACh EC30-70): 85 ± 12%
% increase of subsequent ACh induced current amplitude (αS269Cβγδ nAChR): 177 ± 37%
Compound: CS(=O)(=O)SCCS(=O)(=O)[O-].[Na+] [MTSES, methanethiosulfonate ethylsulfonate]
effect of MTSES applied after MTSEA on subsequent ACh induced currents (αS268Cβγδ nAChR; compared to MTSES applied alone): similarly increased subsequent ACh induced currents
effect of MTSES application on ACh induced currents ([1]; MTSES 5 mM): no functional effect
